Data taken from paper PMC9329436, “Optimization of the 4-anilinoquin(az)oline scaffold as epidermal growth factor receptor (EGFR) inhibitors for chordoma utilizing a toxicology profiling assay platform” (Scientific Reports, 2022).
Read-outs that look alike come from different tables or passages of the source.

Legend:
Assay type in all cases: biochemical
[1] = molecular target: T1, 320 wild-type protein kinases (Homo sapiens, UniProt Q14164); settings: IKK-epsilon, singlicate
T1 sequence (Q14164 1-716): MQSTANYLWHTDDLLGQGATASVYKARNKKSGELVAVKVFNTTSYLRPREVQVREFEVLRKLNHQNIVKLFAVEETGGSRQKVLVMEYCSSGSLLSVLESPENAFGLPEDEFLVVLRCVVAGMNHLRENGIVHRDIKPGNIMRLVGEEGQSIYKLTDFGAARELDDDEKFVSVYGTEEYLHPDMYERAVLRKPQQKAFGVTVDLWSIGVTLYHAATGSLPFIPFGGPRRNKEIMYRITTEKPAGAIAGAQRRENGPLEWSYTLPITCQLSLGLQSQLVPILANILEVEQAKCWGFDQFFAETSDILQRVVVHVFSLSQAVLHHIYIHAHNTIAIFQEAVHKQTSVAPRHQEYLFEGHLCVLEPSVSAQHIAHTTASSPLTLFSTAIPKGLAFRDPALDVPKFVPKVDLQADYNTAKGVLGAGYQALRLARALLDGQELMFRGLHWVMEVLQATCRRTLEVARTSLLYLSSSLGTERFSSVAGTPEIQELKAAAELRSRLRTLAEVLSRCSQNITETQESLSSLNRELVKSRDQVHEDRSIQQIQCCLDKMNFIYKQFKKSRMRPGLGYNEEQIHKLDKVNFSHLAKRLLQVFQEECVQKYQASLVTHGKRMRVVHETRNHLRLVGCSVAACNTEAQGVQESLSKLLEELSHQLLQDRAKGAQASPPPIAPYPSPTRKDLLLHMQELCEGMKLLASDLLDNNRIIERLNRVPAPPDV
Source text: (§1) Table S4. Profiling of two compounds at two concentrations against 320 wild-type protein kinases; singlicate measurement; Residual activities (% of control).

[2] = molecular target: T2, 320 wild-type protein kinases (Homo sapiens, UniProt Q12866); settings: MERTK, singlicate
T2 sequence (Q12866 21-999): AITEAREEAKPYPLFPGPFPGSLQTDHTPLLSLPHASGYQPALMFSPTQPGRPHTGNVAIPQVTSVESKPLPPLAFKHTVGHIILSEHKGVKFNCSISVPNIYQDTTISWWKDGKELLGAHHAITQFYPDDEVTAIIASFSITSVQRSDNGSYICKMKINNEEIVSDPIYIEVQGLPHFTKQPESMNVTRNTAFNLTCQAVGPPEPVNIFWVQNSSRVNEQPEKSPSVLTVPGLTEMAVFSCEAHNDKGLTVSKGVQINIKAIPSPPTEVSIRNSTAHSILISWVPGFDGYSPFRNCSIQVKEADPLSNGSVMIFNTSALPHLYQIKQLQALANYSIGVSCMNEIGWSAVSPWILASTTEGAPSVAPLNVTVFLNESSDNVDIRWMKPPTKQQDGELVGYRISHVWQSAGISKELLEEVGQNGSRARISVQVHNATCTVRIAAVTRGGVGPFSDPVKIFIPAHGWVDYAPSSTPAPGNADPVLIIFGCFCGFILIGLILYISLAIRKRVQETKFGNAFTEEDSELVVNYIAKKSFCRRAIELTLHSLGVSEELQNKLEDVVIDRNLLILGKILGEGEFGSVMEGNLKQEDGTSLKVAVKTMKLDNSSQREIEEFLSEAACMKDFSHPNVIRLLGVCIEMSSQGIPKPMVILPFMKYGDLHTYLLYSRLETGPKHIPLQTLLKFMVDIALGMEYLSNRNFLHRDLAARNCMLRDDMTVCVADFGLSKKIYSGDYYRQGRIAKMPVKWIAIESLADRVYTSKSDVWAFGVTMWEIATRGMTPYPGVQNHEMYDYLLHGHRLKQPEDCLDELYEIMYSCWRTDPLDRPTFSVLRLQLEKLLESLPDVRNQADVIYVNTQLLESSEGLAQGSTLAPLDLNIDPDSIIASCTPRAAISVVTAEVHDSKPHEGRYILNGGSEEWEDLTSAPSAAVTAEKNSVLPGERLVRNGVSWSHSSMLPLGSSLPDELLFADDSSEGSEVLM
Source text: as §1

[3] = molecular target: T3, 320 wild-type protein kinases (Homo sapiens, UniProt P35626); settings: singlicate
T3 sequence (P35626 1-688): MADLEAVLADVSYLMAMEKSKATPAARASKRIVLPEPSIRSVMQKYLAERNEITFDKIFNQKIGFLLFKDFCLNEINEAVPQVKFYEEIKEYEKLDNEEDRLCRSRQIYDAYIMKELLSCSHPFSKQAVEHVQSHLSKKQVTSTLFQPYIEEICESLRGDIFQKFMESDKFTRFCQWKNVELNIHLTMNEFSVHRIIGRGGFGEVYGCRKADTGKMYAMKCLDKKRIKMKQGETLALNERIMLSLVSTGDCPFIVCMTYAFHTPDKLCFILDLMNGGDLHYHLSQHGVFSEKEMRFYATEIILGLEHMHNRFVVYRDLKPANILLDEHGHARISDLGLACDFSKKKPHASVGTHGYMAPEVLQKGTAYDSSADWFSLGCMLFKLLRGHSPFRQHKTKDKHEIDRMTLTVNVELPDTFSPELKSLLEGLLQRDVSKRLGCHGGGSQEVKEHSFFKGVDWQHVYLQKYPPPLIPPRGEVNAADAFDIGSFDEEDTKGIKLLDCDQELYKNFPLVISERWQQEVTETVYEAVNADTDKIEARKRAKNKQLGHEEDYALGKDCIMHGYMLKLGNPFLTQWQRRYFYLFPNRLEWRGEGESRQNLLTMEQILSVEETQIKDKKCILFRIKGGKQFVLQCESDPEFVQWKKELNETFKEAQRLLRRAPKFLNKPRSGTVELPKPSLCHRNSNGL
Source text: as §1

[4] = molecular target: 320 wild-type protein kinases (Homo sapiens, UniProt Q15418); settings: kinase RPS6KA1, singlicate
Source text: as §1

Chain of 320 wild-type protein kinases (Homo sapiens, UniProt Q15418) (Q15418 whole entry): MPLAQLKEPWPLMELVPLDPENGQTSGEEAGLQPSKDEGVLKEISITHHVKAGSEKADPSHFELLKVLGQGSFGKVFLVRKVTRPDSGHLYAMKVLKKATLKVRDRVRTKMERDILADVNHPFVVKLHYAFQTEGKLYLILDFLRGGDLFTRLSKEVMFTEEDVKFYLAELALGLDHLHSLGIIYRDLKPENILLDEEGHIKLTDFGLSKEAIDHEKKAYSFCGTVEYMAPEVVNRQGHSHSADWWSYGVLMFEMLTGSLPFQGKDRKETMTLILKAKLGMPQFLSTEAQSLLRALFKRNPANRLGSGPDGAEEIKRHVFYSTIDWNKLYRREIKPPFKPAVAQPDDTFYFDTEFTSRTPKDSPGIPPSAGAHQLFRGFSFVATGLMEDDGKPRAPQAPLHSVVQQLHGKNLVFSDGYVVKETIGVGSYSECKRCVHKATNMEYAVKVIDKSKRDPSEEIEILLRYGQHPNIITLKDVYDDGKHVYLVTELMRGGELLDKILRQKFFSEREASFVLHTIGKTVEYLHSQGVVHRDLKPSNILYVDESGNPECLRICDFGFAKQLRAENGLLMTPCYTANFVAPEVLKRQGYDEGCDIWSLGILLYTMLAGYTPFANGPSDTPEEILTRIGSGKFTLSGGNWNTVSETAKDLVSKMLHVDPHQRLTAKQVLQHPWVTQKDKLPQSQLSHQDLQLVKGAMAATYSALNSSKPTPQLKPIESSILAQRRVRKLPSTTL

| SMILES | Residual activity ([1]; 1.0E-06 M) | Residual activity ([1]; 1.0E-07 M) | Residual activity ([2]; 1.0E-06 M) | Residual activity ([2]; 1.0E-07 M) | Residual activity ([3]; GRK3, 1.0E-06 M) | Residual activity ([3]; GRK3, 1.0E-07 M) | Residual activity, RPS6KA1 ([4]; assay conc. 1.0E-06 M) | Residual activity, RPS6KA1 ([4]; assay conc. 1.0E-07 M) |
| --- | --- | --- | --- | --- | --- | --- | --- | --- |
| C#Cc1cc(Nc2ncnc3cc(I)ccc23)ccc1Cl [Compound 41] | 94 % of control | 108 % of control | 102 % of control | 103 % of control | 127 % of control | 131 % of control | 99 % of control | 103 % of control |
| C#Cc1cc(Nc2ncnc3cc(OC)c(OC)cc23)ccc1Cl [Compound 45] | 101 % of control | 108 % of control | 83 % of control | 97 % of control | 118 % of control | 123 % of control | 74 % of control | 88 % of control |
